The values that follow come from patent publication US9238625B2, “Compositions, synthesis, and methods of using phenylcycloalkylmethylamine derivatives” (Reviva Pharmaceuticals, Inc., priority 2011, dated 2016).

pKi: −log10 of the molar value.

The conditions of data set [1]: active metabolites of sibutramine; cited from earlier work.
Data set [2] concerns the target human recombinant transporter protein dopamine (DAT) (Homo sapiens (Human), UniProt Q01959). The data set is described as follows: radioligand binding assay, dopamine transporter. Particulars: 11 test concentrations 0.1 nM to 1 μM, duplicates, hydrochloride salts. As to the method:
(§1) The monoamine transporters inhibitory activities of selected cycloalkylmethylamines of Formula (I) are reported herein. The compounds were evaluated using well established radioligand binding assays protocols (Galli, A. et al., J. Exp. Biol. 1995, 198, 2197-2212; Giros, B. et al., Trends Pharmcol. Sci. 1993, 14, 43-49; Gu, H. et al., J. Biol. Chem. 1994, 269(10), 7124-7130; Shearman, L. P. et al, Am. J. Physiol., 1998, 275(6 Pt 1), C1621-1629; Wolf, W. A. et al., J. Biol. Chem. 1992, 267(29), 20820-20825). The human recombinant transporter proteins dopamine (DAT), norepinephrine (NET) and serotonin (SERT) were selected for the in vitro assays. The radioligand binding assays were carried out at 11 different test concentrations 0.1 nM to 1 μM.
(§2) The assays were carried out in duplicates and the quantitative data are reported as Ki in the Table 1.

Data set [3] has as its target human recombinant transporter protein serotonin (SERT) (Homo sapiens (Human), UniProt P31645). The data set is described as follows: radioligand binding assay, serotonin transporter. Particulars: 11 test concentrations 0.1 nM to 1 μM, duplicates, hydrochloride salts. As to the method:
as §1, §2

Data set [4] has as its target human recombinant transporter protein norepinephrine (NET) (Homo sapiens (Human), UniProt P23975). In words: radioligand binding assay, norepinephrine transporter. Particulars: 11 test concentrations 0.1 nM to 1 μM, duplicates, hydrochloride salts. The procedure: as §1, §2

Chain of human recombinant transporter protein norepinephrine (NET) (P23975 whole entry): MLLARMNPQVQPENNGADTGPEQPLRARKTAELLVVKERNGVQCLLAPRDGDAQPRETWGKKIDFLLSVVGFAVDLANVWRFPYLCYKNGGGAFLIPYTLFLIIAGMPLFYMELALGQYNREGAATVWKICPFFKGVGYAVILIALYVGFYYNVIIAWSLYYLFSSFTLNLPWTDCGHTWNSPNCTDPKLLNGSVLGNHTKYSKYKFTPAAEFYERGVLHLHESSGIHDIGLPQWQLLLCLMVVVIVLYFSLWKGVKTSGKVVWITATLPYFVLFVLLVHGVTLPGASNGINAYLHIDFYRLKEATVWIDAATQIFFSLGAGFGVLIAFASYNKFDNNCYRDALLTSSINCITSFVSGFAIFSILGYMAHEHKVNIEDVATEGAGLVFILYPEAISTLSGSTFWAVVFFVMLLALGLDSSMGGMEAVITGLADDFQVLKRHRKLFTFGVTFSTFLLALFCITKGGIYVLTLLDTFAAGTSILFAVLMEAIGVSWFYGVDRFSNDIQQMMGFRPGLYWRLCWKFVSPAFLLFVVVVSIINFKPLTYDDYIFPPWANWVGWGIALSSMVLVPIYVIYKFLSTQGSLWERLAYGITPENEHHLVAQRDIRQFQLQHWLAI
Chain of human recombinant transporter protein dopamine (DAT) (Q01959 whole entry): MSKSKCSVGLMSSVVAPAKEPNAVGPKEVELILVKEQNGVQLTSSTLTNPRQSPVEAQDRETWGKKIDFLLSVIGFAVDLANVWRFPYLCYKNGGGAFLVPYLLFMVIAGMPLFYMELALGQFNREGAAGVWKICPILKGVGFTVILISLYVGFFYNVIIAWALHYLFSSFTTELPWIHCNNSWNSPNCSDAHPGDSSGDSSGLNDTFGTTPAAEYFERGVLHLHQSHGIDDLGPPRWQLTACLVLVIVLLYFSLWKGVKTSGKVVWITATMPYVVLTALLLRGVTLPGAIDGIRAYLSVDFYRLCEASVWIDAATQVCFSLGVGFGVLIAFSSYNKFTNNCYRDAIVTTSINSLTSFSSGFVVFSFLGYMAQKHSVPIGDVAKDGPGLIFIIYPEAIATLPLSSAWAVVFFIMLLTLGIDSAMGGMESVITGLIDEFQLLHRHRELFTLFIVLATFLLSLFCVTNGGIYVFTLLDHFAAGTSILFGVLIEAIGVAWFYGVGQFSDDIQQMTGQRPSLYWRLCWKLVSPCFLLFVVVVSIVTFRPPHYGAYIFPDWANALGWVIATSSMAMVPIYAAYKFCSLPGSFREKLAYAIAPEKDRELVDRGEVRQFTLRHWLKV

Consider `CNC(CC(C)C)C1(c2ccc(Cl)cc2)CCC1` (centres unmarked) [Compound M1], for which, in data set [1], the elimination half-life was 14 h.
The pKi is the Ki on a negative log10 scale, so that one unit is a factor of ten. On to `CCCOCCCN[C@H](CC(C)C)C1(c2ccc(Cl)c(Cl)c2)CCC1` [Compound 8d, (R)-1-(1-(3,4-Dichlorophenyl)cyclobutyl)-N-(3-propoxypropyl)-3-methylbutan-1-amine], for which the values for the pKi in data set [2], in data set [3] and in data set [4] were 8.26, 8.42 and 7.14, respectively.
Taken in the same sequence, the figures for `CCCCSCCCCNC(CC(C)C)C1(c2ccc(Cl)c(Cl)c2)CCC1` (centres unmarked) [Compound 13d, N-(4-(Butylthio)butyl)-1-(1-(3,4-dichlorophenyl)cyclobutyl)-3-methylbutan-1-amine] were 6.98, 7.18 and 7.29.
As to `CCOCCCCN[C@H](CC(C)C)C1(c2ccc(Cl)c(Cl)c2)CCC1` [Compound 8j, (R)-1-(1-(3,4-Dichlorophenyl)cyclobutyl)-N-(4-ethoxybutyl)-3-methylbutan-1-amine], the negative logarithm of the Ki (pKi) in data set [2] was 8.94; in data set [3] it was 9.10; in data set [4] it was 7.96.
Take `CC(C)CC(N)C1(c2ccc(Cl)cc2)CCC1` (centres unmarked) [Compound M2]: the elimination half-life in data set [1] was 16 h.
In the case of `CCOc1ccc(C2(C(CC(C)C)NCCSCC)CCC2)cc1` (centres unmarked) [Compound 12c, 1-(1-(4-Ethoxyphenyl)cyclobutyl)-N-(2-(ethylthio)ethyl)-3-methylbutan-1-amine], the pKi in data set [2] was 6.94; in data set [3], 8.48; in data set [4] it was 5.85.
With `CCOCCCCNC(CC(C)C)C1(c2ccc(SC)cc2)CCC1` (centres unmarked) [Compound 7g, N-(4-Ethoxybutyl)-3-methyl-1-(1-(4-(methylthio)phenyl)cyclobutyl)butan-1-amine], the negative logarithm of the Ki (pKi) in data set [2] was 7.04; in data set [3], 8.52; in data set [4], 7.43.
For `COCCCCN[C@H](CC(C)C)C1(c2ccc(Cl)c(Cl)c2)CCC1` [Compound 8h, (R)-1-(1-(3,4-Dichlorophenyl)cyclobutyl)-N-(4-methoxybutyl)-3-methylbutan-1-amine] the same measures were 8.62, 8.92 and 7.90.
Taken in the same sequence, the figures for `CCOCCNC(CC(C)C)C1(c2ccc(Cl)c(Cl)c2)CCC1` (centres unmarked) [Compound 8a, 1-(1-(3,4-Dichlorophenyl)cyclobutyl)-N-(2-ethoxyethyl)-3-methylbutan-1-amine] were 8.62, 8.85 and 7.33.
For `CCSCCCCNC(CC(C)C)C1(c2ccc(Cl)cc2)CCC1` (centres unmarked) [Compound 12b, 1-(1-(4-Chlorophenyl)cyclobutyl)-N-(4-(ethylthio)butyl)-3-methylbutan-1-amine] the same measures were 7.17, 7.73 and 7.29.
For `CCSCCCCNC(CC(C)C)C1(c2ccc(Cl)c(Cl)c2)CCC1` (centres unmarked) [Compound 13c, 1-(1-(3,4-Dichlorophenyl)cyclobutyl)-N-(4-(ethylthio)butyl)-3-methylbutan-1-amine], the negative logarithm of the Ki (pKi) was 7.62 in data set [2], 7.83 in data set [3] and 7.77 in data set [4].
`CCS(=O)(=O)CCCCNC(CC(C)C)C1(c2ccc(Cl)c(Cl)c2)CCC1` (centres unmarked) [Compound 17a, 1-(1-(3,4-Dichlorophenyl)cyclobutyl)-N-(4-(ethylsulfonyl)butyl)-3-methylbutan-1-amine]: the pKi in data set [2] was 7.53; in data set [3], 7.42; in data set [4], 7.35.
For `CCSCCNC(CC)C1(c2ccc(Cl)c(Cl)c2)CCC1` (centres unmarked) [Compound 13f, 1-(1-(3,4-dichlorophenyl)cyclobutyl)-N-(2-(ethylthio)ethyl)propan-1-amine] the same measures were 7.31, 6.65 and 6.92.
